In ChEMBL document CHEMBL5104164, “Design, synthesis, and biological evaluation of pyrrolopyrimidine derivatives as novel Bruton's tyrosine kinase (BTK) inhibitors” (Eur J Med Chem, 2022):
The source made the active and inactive calls. The rule behind the calls is not given here.

Tests used:
SUD4 = assay: Antiproliferative activity against human SU-DHL-4 cells incubated for 72 hrs by CellTiter-Glo assay; format: functional, cell-based; conditions: SU-DHL-4, 72 h
Rec1 = assay: Antiproliferative activity against human REC1 cells incubated for 72 hrs by CellTiter-Glo assay; format: functional, cell-based; conditions: Rec1, 72 h
TMD8 [1] = assay: Cell cycle arrest in human TMD8 cells assessed as accumulation of cells at S phase at 1 nM after 48 hrs by propidium iodide staining based flow cytometric analysis (reference value: 49.3%); format: functional
TMD8 [2] = assay: Induction of apoptosis in human TMD8 cells assessed as apoptotic cells 1000 nM incubated for 72 hrs by AnnexinV-FITC/propidium iodide staining based flow cytometric analysis; format: functional
[3] = Oral bioavailability in male BALB/c mouse; format: ADME, organism-based; conditions: in vivo
[4] = Mutagenicity in Salmonella typhimurium TA100 at 1.5 to 1000 ug per plate by AMES test; format: toxicity, Salmonella enterica subsp. enterica serovar Typhimurium; conditions: dose 1.5-1000 µg
[5] = molecular target: Voltage-gated inwardly rectifying potassium channel KCNH2 (Homo sapiens, UniProt Q12809); assay: Inhibition of hERG; format: toxicity
[6] = molecular target: T1, Tyrosine-protein kinase BTK (Homo sapiens, UniProt Q06187); assay: Inhibition of BTK (unknown origin) assessed as residual percent of control at 1 uM measured by DiscoverX kinome scan assay relative to control
TMD8 [7] = assay: Antitumor activity against human TMD8 cells xenografted in female CB-17 SCID nude mouse assessed as tumor suppression at 12.5 to 25 mg/kg, po administered twice daily for 21 days; format: functional, organism-based; conditions: dose 12.5-25 mg/kg, time 21.0 day
TMD8 [8] = assay: In vivo inhibition of BTK in female CB-17 SCID nude mouse xenografted with human TMD8 cells assessed as reduction in p-BTK (Tyr223) expression at 12.5 to 50 mg/kg, po administered twice daily for 21 days; format: functional, organism-based; conditions: dose 12.5-50 mg/kg, time 21.0 day
TMD8 [9] = assay: Antiproliferative activity against human TMD8 cells incubated for 72 hrs by CellTiter-Glo assay; conditions: TMD8, 72 h
[10] = Toxicity in female CB-17 SCID nude mouse xenografted with human TMD8 cells assessed as effect on red blood cells at 50 mg/kg, po administered twice daily for 21 days; format: organism-based; conditions: in vivo, 504 h, time 21 day
TMD8 [11] = assay: Induction of apoptosis in human TMD8 cells assessed as apoptotic cells 10 nM incubated for 72 hrs by AnnexinV-FITC/propidium iodide staining based flow cytometric analysis; format: functional
[12] = AUC (0 to infinity) in male BALB/c mouse at 2 mg/kg, iv; format: ADME, organism-based; design: time infinity, dose 2 mg/kg, route iv; conditions: in vivo
Raji = assay: Antiproliferative activity against human Raji cells incubated for 72 hrs by CellTiter-Glo assay; format: functional, cell-based
TMD8 [13] = assay: Antitumor activity against human TMD8 cells xenografted in female CB-17 SCID nude mouse assessed as tumor growth inhibition at 50 mg/kg, po administered twice daily for 21 days; format: functional; conditions: TMD8, 504 h, time 21 day, read-out: TGI
[14] = Half-life in male BALB/c mouse at 10 mg/kg, po; format: ADME, organism-based; conditions: in vivo
OCI-Ly3 = assay: Antiproliferative activity against human OCILY3 cells incubated for 72 hrs by CellTiter-Glo assay; format: functional, cell-based; conditions: OCI-Ly3, 72 h
TMD8 [15] = assay: Cell cycle arrest in human TMD8 cells assessed as accumulation of cells at G2 phase at 10 nM after 48 hrs by propidium iodide staining based flow cytometric analysis (reference value: 13.4%); format: functional
TMD8 [16] = assay: Induction of apoptosis in human TMD8 cells assessed as apoptotic cells 100 nM incubated for 72 hrs by AnnexinV-FITC/propidium iodide staining based flow cytometric analysis; format: functional
[17] = Toxicity in female CB-17 SCID nude mouse xenografted with human TMD8 cells assessed as reduction in white blood cells at 50 mg/kg, po administered twice daily for 21 days; format: organism-based; conditions: in vivo, 504 h, time 21 day
[18] = Toxicity in female CB-17 SCID nude mouse xenografted with human TMD8 cells assessed as reduction in lymphocytes at 50 mg/kg, po administered twice daily for 21 days; format: organism-based; conditions: in vivo, 504 h, time 21 day
[19] = Toxicity in female CB-17 SCID nude mouse xenografted with human TMD8 cells assessed as effect on body weight at 12.5 to 50 mg/kg, po administered twice daily for 21 days; format: organism-based; conditions: in vivo, 504 h, dose 12.5-50 mg/kg, time 21 day
[20] = Mutagenicity in Salmonella typhimurium TA100 at 1.5 to 1000 ug per plate in presence of liver microsomes by AMES test; format: toxicity, Salmonella enterica subsp. enterica serovar Typhimurium; conditions: dose 1.5-1000 µg
[21] = molecular target: Epidermal growth factor receptor (Homo sapiens) (UniProt P00533); assay: Inhibition of EGFR (unknown origin) assessed as residual percent of control at 1 uM measured by DiscoverX kinome scan assay relative to control
[22] = Half-life in male BALB/c mouse at 2 mg/kg, iv; format: ADME, organism-based; conditions: in vivo
TMD8 [23] = assay: Cell cycle arrest in human TMD8 cells assessed as accumulation of cells at G0/G1 phase at 1 nM after 48 hrs by propidium iodide staining based flow cytometric analysis (reference value: 32.9%); format: functional
[24] = Antiproliferative activity against human MINO cells incubated for 72 hrs by CellTiter-Glo assay; format: functional, cell-based
[25] = molecular target: T1, Tyrosine-protein kinase BTK; assay: Inhibition of BTK (unknown origin) measured by ADP-Glo assay
[26] = Toxicity in female CB-17 SCID nude mouse xenografted with human TMD8 cells assessed as effect on platelets at 50 mg/kg, po administered twice daily for 21 days; format: organism-based; conditions: in vivo, 504 h, time 21 day
[27] = Apparent volume of distribution in male BALB/c mouse at 2 mg/kg, iv; format: ADME, organism-based; conditions: in vivo, read-out: Vz
[28] = AUC (0 to infinity) in male BALB/c mouse at 10 mg/kg, po; format: ADME, organism-based; design: time infinity, dose 10 mg/kg, route po; conditions: in vivo
TMD8 [29] = assay: Cell cycle arrest in human TMD8 cells assessed as accumulation of cells at G0/G1 phase at 10 nM after 48 hrs by propidium iodide staining based flow cytometric analysis (reference value: 32.9%); format: functional
[30] = Mutagenicity in Salmonella typhimurium TA1537 at 1.5 to 1000 ug per plate by AMES test; format: toxicity, Salmonella enterica subsp. enterica serovar Typhimurium; conditions: dose 1.5-1000 µg
TMD8 [31] = assay: Cell cycle arrest in human TMD8 cells assessed as accumulation of cells at G2 phase at 1 nM after 48 hrs by propidium iodide staining based flow cytometric analysis (reference value: 13.4%); format: functional
[32] = molecular target: T1, Tyrosine-protein kinase BTK; assay: Inhibition of BTK in human TMD8 cells assessed as inhibition of BTK autophosphorylation at Tyr223 measured by Western blot analysis; format: cell-based
SU-DHL-6 = assay: Antiproliferative activity against human SU-DHL-6 cells incubated for 72 hrs by CellTiter-Glo assay; format: functional, cell-based; conditions: SU-DHL-6, 72 h
[33] = Cmax in male BALB/c mouse at 2 mg/kg, iv; format: ADME, organism-based; design: dose 2 mg/kg, route iv; conditions: in vivo
[34] = Cmax in male BALB/c mouse at 10 mg/kg, po; format: ADME, organism-based; design: dose 10 mg/kg, route po; conditions: in vivo
TMD8 [35] = assay: Cell cycle arrest in human TMD8 cells assessed as accumulation of cells at G2 phase at 100 nM after 48 hrs by propidium iodide staining based flow cytometric analysis (reference value: 13.4%); format: functional

T1 sequence (Q06187 whole entry): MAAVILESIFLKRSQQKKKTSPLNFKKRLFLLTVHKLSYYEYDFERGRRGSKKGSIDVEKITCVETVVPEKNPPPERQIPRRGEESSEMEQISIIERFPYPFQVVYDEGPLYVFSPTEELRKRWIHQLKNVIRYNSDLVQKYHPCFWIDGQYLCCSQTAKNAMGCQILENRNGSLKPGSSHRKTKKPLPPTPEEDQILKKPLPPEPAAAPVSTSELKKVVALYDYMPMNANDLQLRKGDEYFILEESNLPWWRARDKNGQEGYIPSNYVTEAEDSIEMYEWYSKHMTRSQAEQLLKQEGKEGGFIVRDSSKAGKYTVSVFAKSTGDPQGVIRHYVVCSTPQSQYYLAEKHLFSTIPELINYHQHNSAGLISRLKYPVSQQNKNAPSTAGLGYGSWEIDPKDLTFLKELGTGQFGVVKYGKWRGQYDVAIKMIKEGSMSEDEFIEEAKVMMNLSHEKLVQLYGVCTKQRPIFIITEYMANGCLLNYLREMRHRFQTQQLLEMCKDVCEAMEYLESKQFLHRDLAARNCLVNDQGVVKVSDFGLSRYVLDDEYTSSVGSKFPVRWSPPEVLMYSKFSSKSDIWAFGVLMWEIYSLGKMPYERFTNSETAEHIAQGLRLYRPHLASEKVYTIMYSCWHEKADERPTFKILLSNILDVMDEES
Chain of Epidermal growth factor receptor (Homo sapiens) (P00533 whole entry): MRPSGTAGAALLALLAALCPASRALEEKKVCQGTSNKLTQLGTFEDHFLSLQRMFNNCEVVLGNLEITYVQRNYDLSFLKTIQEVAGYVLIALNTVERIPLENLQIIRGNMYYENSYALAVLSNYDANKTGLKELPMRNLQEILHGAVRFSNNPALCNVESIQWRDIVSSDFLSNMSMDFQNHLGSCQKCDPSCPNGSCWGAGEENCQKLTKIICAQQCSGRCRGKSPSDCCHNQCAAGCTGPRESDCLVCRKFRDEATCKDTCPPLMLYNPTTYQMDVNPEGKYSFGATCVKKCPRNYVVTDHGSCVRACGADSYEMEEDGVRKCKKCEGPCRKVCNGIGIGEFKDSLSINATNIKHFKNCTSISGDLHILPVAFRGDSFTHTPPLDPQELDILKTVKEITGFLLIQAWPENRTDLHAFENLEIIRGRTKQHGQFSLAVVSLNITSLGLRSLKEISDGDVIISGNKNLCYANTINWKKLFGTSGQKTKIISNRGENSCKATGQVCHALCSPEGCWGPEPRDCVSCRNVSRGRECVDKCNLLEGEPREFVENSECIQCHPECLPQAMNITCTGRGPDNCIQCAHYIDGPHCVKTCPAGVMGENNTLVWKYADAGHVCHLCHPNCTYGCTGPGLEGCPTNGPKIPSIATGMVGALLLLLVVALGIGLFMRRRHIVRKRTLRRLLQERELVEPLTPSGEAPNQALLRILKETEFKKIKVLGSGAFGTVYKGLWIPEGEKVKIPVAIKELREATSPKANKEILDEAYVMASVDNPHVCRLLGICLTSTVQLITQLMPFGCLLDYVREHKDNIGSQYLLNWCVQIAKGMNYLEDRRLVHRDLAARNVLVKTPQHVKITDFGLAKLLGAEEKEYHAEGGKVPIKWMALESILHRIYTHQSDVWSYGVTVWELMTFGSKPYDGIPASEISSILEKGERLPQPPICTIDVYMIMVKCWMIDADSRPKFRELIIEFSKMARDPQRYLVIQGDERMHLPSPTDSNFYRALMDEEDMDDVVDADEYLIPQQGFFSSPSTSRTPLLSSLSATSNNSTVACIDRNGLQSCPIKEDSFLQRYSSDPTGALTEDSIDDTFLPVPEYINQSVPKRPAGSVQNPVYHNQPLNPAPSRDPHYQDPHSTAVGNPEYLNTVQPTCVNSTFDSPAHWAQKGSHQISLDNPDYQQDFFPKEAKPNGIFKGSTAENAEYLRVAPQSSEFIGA
Chain of Voltage-gated inwardly rectifying potassium channel KCNH2 (Q12809 whole entry): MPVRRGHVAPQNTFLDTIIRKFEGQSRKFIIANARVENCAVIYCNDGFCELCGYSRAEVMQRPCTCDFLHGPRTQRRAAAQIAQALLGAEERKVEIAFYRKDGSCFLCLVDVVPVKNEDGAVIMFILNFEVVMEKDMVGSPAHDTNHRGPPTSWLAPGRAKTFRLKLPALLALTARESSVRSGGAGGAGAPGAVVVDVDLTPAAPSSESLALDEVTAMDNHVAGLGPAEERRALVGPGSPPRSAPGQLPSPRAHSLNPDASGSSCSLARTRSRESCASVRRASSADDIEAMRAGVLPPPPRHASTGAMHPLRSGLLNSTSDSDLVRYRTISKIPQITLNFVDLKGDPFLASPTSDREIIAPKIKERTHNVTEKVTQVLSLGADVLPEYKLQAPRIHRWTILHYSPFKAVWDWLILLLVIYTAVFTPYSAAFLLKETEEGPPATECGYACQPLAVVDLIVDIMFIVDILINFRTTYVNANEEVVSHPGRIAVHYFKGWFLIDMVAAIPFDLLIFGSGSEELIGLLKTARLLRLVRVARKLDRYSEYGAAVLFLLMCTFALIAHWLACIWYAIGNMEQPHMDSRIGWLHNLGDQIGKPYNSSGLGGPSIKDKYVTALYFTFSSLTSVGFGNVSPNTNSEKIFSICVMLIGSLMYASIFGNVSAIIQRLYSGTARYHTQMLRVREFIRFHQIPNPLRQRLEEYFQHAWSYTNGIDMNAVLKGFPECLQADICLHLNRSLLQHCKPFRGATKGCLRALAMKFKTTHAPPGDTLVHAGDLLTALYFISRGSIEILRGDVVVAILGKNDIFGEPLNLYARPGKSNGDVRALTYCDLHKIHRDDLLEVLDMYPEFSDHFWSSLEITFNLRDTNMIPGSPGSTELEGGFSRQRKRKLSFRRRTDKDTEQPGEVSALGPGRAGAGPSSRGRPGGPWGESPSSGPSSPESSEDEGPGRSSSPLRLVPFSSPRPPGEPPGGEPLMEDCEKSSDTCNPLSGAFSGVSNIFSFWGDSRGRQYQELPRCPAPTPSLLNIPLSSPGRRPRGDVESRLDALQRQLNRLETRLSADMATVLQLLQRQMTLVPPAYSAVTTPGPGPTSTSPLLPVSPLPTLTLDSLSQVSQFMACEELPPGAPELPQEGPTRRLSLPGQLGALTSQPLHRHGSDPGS

C=CC(=O)N1CC=C(c2c[nH]c3ncnc(-c4ccc(CNC(=O)c5ccccc5)c(F)c4)c23)CC1
IC50 (SUD4): > 10000 nM | IC50 (Rec1): 1.7 nM | Activity (TMD8 [1]): 49.3% | Activity (TMD8 [2]): 31.4% | bioavailability [3]: 41% | Activity [4]: Non-Toxic | IC50 [5]: 4380 nM | Activity [6]: 0.05% | Activity (TMD8 [7]): Active | Activity (TMD8 [8]): Active | IC50 (TMD8 [9]): 2.6 nM | Activity [10]: Non-Toxic | Activity (TMD8 [11]): 19% | AUC(0-inf) [12]: 718 ng·h/mL | IC50 (Raji): > 10000 nM | inhibition in vivo at 50 mg/kg (TMD8 [13]): 104% | half-life [14]: 35.4 min | IC50 (OCI-Ly3): > 10000 nM | Activity (TMD8 [15]): 8.7% | Activity (TMD8 [16]): 25.2% | Activity [17]: Toxic | Activity [18]: Toxic | Activity [19]: Non-Toxic | Activity [20]: Non-Toxic | Activity [21]: 44% | half-life [22]: 40.2 min | Activity (TMD8 [23]): 33% | IC50 [24]: > 10000 nM | IC50 [25]: 0.7 nM | Activity [26]: Non-Toxic | Vd [27]: 2.79 L/kg | AUC(0-inf) [28]: 1470 ng·h/mL | Activity (TMD8 [29]): 59.2% | Activity [30]: Non-Toxic | Activity (TMD8 [31]): 11.8% | IC50 [32]: 1.49 nM | IC50 (SU-DHL-6): > 10000 nM | Cmax [33]: 2250 ng/mL | Cmax [34]: 1440 ng/mL | Activity (TMD8 [35]): 6.4%
